The EC50 is the concentration giving half of the maximal effect. Read a low EC50 as greater potency. As a reminder, the IC50 is the concentration that gives 50% inhibition.

Assay [1] relates to MEK-ERK dependent luciferase expression (constitutively activated mutant MEK) in 293T cells. In words: Cell-based MEK-ERK dependent luciferase reporter assay in 293T cells. The note with it: Homo sapiens, HEK-293T, minimum concentration causing 50% inhibition in cell-based assays, 24 hours incubation. As for the experimental part: Activities of compounds were determined using a cell-based assay system. 293T cells were engineered to express a luciferase reporter protein in response to activation of ERK. ERK was activated by the doxycycline inducible expression of a constitutively activated mutant MEK. The activated MEK mutant had serines 218 and 222 replaced with aspartic acids. Therefore, addition of doxycycline to the media of cells induced an increase in MEK-ERK dependent luciferase expression.
Cells were plated at 5000 cells per well of a 384 well plate in 20 ul of media containing 10 ng/ml doxycycline. Compounds were resuspended in DMSO at a concentration of 20 mM. These compound stocks were diluted at least 200 fold so the concentration of DMSO was never above 0.5%. Cells were incubated with compounds for 24 hours at which time 25 ul of Steady-Glo (Promega Corp.) was added. The plates were then assayed for luminescence. Percent inhibition was calculated by dividing the luminescence of compound treated cells by control cells.
Background: A reporter such as luciferase makes a cellular process visible.

The next assay has as its target T1, GST-hMEK1 and mERK2 (Homo sapiens, UniProt Q02750).
T1 construct: purified GST-hMEK1 and mERK2 enzymes; fused on or other part: GST tag on hMEK1
The assay is classed as biochemical. The settings on record: minimum concentration causing 50% inhibition in vitro assays; MEK kinase inhibition. Here is the method: In order to identify ideal inhibitory compounds in a high throughput-screening (HTS) format a 96-well radiolabel incorporation format assay utilizing purified GST-hMEK1 and mERK2 enzymes was developed. Compounds were diluted from dimethylsulfoxide (DMSO) stocks into 1× Simplified Assay Buffer (SAB) (20 mM HEPES and 10 mM MgCl2). A typical 25 microliter assay contained 0.002 nanomoles MEK^CA, 0.02 nanomoles ERK, 0.25 nanomoles MBP, 0.25 nanomoles unlabeled ATP, and 0.1 μCi [γ^33P] ATP. The screening assay essentially comprised four additions. Five μ1 of diluted compound were dispensed to 96-well assay plates. Ten μl of 2.5× enzyme cocktail (MEK^CA and ERK only) were then added to each well followed by a pre-incubation for 15 minutes at 37° C. […] Finally, 200 μl of 10% trichloroacetic acid (TCA) were added and incubated for 30 minutes to halt the reaction and precipitate radio labeled protein products. A filter plate was placed in the Filtermate Harvester, wetted twice with water, and rinsed twice with 1% pyrophosphate to block nonspecific binding to the glass filter. An assay plate was then scanned and aspirated or harvested onto the filter plate. The filter plate was then washed 12 times with water. Water was displaced by two washes with absolute ethanol and the plate was removed and allowed to air dry for 30 minutes at room temperature. A back seal was applied manually and 40 μl of scintillation cocktail were dispensed per well. A top seal was applied and the plate was counted in the TopCount for two seconds per well.

T1 sequence (P63085 2-358): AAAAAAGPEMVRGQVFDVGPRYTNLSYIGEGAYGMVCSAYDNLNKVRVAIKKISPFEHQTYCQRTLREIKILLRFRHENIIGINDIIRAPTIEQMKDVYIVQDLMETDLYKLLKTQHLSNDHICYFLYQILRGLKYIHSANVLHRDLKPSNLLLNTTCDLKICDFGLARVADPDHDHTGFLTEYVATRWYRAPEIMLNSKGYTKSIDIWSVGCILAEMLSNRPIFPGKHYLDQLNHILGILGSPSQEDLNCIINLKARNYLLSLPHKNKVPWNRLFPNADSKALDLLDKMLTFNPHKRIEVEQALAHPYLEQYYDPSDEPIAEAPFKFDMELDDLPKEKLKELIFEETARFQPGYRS
T1 sequence (Q02750 whole entry, the tested form may be a part): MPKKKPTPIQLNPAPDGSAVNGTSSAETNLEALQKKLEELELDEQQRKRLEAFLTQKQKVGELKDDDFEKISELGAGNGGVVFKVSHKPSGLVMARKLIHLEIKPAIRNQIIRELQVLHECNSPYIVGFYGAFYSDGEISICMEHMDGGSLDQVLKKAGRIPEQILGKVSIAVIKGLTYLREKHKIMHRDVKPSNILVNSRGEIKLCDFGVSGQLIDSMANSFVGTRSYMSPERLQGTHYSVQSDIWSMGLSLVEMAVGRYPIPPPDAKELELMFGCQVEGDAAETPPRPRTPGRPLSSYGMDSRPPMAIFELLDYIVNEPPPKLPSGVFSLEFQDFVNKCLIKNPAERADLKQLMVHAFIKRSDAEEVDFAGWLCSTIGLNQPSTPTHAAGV

In turn, `COc1ccccc1Nc1snc(O)c1C#N` [Compound 7] had an EC50 in assay [1] above 100 µM. With `N=C(N)c1c(O)nsc1Nc1ccc(Oc2ccccc2)cc1` [Compound 36], the IC50 on GST-hMEK1 and mERK2 was below 10 µM. The compound `N#Cc1c(O)nsc1Nc1ccccc1C(F)(F)F` [Compound 19] showed an IC50 against GST-hMEK1 and mERK2 of 10 to 100 µM. For the compound `N#Cc1c(O)nsc1NCCc1ccc(O)cc1` [Compound 35], on GST-hMEK1 and mERK2, the 50% inhibitory concentration (IC50) is below 10 µM.

With `Cc1ccccc1Nc1snc(O)c1C#N` [Compound 5], the EC50 in assay [1] fell in the range of 10 to 100 µM. At GST-hMEK1 and mERK2, the IC50 lay within 10 to 100 µM. With `N#Cc1c(O)nsc1Nc1ccccc1` [Compound 1], the EC50 in assay [1] was in the range of 10 to 100 µM. Besides, the IC50 against GST-hMEK1 and mERK2 was below 10 µM. On the same counts, the results for `COc1cc(-c2ccccc2)ccc1Nc1snc(O)c1C#N` [Compound 14] are above 100 µM and below 10 µM. Consider `N#Cc1c(O)nsc1N1CCCCC1` [Compound 33], for which, on GST-hMEK1 and mERK2, the IC50 was below 10 µM. On GST-hMEK1 and mERK2, `CC(=O)c1ccc(Nc2snc(O)c2C#N)cc1` [Compound 22] gave an IC50 below 10 µM. The same measure, in the same setting: the result for `CCCCNc1snc(O)c1C#N` [Compound 32] reads below 10 µM. As to `N#Cc1c(Br)nsc1Nc1ccccc1` [Compound 2], the EC50 in assay [1] is below 10 µM. This compound returned an IC50 at GST-hMEK1 and mERK2 of 10 to 100 µM. In the case of `N#Cc1c(O)nsc1Nc1ccccc1F` [Compound 26], the IC50 against GST-hMEK1 and mERK2 was below 10 µM.

`Cc1ccc(Nc2snc(O)c2C#N)cc1` [Compound 3]: the EC50 in assay [1] is below 10 µM. The compound also gave an IC50 against GST-hMEK1 and mERK2 of 10 to 100 µM. Turning to `CC(C)Nc1snc(O)c1C#N` [Compound 39], the IC50 against GST-hMEK1 and mERK2 was below 10 µM.

For `N#Cc1c(O)nsc1NCCCN1CCOCC1` [Compound 40], the IC50 on GST-hMEK1 and mERK2 is below 10 µM. In assay [1], `N#Cc1c(O)nsc1Nc1cccc(Cl)c1` [Compound 10] displayed an EC50 above 100 µM. The same compound yielded an IC50 against GST-hMEK1 and mERK2 of 10 to 100 µM.

As for `COc1ccc(Nc2snc(O)c2C#N)cc1` [Compound 6], the EC50 in assay [1] was above 100 µM. Turning to `COC(=O)c1ccc(Nc2snc(O)c2C#N)cc1` [Compound 25], the IC50 at GST-hMEK1 and mERK2 is below 10 µM. Turning to `CC(C)c1ccc(Nc2snc(O)c2C#N)cc1` [Compound 15], in assay [1], the EC50 was below 10 µM. The compound further yielded an IC50 at GST-hMEK1 and mERK2 below 10 µM. For `CN(C)c1ccc2ccccc2c1Nc1snc(O)c1C#N` [Compound 17], in assay [1], the EC50 is below 10 µM. Moreover, the IC50 against GST-hMEK1 and mERK2 was below 10 µM. On to `Cc1cccc(Nc2s[nH]c(=O)c2C#N)c1` [Compound 4], for which the EC50 in assay [1] was 10 to 100 µM. The same compound gave an IC50 on GST-hMEK1 and mERK2 of 10 to 100 µM.

`N#Cc1c(O)nsc1Nc1ccc(N)cc1` [Compound 21] had an IC50 at GST-hMEK1 and mERK2 below 10 µM. As to `COc1cccc(Nc2snc(O)c2C#N)c1` [Compound 8], in assay [1], the EC50 was above 100 µM. `CN(C)c1ccc(Nc2snc(O)c2C#N)c2ccccc12` [Compound 18] came in with an EC50 in assay [1] below 10 µM. This compound also gave an IC50 against GST-hMEK1 and mERK2 below 10 µM. In the case of `CC(C)c1cccc(C(C)C)c1Nc1snc(O)c1C#N` [Compound 16], in assay [1], the EC50 was 10 to 100 µM. For the same compound, the IC50 at GST-hMEK1 and mERK2 lay in the range of 10 to 100 µM. On GST-hMEK1 and mERK2, `N#Cc1c(OC2CCCCC2)nsc1Nc1ccccc1` [Compound 38] registered an IC50 below 10 µM.

`N#Cc1c(O)nsc1Nc1cccnc1` [Compound 29] yielded an IC50 on GST-hMEK1 and mERK2 below 10 µM.

Consider `NC(=O)c1c(O)nsc1Nc1ccc(Oc2ccccc2)cc1` [Compound 37], for which the IC50 at GST-hMEK1 and mERK2 was below 10 µM. On to `N#Cc1c(O)nsc1NCC1CCCO1` (stereo not shown) [Compound 34], for which the IC50 at GST-hMEK1 and mERK2 was below 10 µM. `N#Cc1c(O)nsc1Nc1ccc([N+](=O)[O-])cc1` [Compound 12] showed an EC50 in assay [1] above 100 µM. Also, the IC50 on GST-hMEK1 and mERK2 is below 10 µM.

In the case of `N#Cc1c(Nc2ccc(Br)cc2)s[nH]c1=O` [Compound 24], at GST-hMEK1 and mERK2, the IC50 was below 10 µM.

For the compound `N#Cc1c(O)nsc1Nc1ccccc1Cl` [Compound 11], the EC50 in assay [1] is above 100 µM. This compound also registered an IC50 at GST-hMEK1 and mERK2 of 10 to 100 µM. On GST-hMEK1 and mERK2, `N#Cc1c(O)nsc1NC1CCc2ccccc21` (stereo not shown) [Compound 31] returned a concentration for half-maximal inhibition (IC50) below 10 µM.

`COC(=O)c1ccccc1Nc1snc(O)c1C#N` [Compound 27] gave an IC50 against GST-hMEK1 and mERK2 below 10 µM.

With `N#Cc1c(O)nsc1Nc1cccc2ccccc12` [Compound 13], the EC50 in assay [1] is below 10 µM. Besides, at GST-hMEK1 and mERK2, the IC50 was below 10 µM. Consider `N#Cc1c(O)nsc1Nc1ccc(Cl)cc1` [Compound 9], for which the EC50 in assay [1] is above 100 µM. This compound also showed an IC50 against GST-hMEK1 and mERK2 of 10 to 100 µM.

At GST-hMEK1 and mERK2, `Cc1ccc(Nc2snc(N)c2C#N)cc1` [Compound 20] yielded an IC50 below 10 µM.

The record behind these values is US6989451B2, “Heterocyclic compounds and uses thereof” (Valeant Research & Development, priority 2002, dated 2006).
